For data set [1] the following is noted: medication of Graves' disease; Non-patent documents 1 and 2; cited from earlier work.
The nature of data set [2]: Degradation of H2O2 in a cell-free system (Amplex red). It is filed as biochemical. The note with it: 20 μM H2O2, 30 min at 37° C. The protocol: Then, Amplex red (Invitrogen) is added and incubated for 30 min in a dark room. The absorbance at 560 nm is measured by a microplate reader (Molecular Devices, Sunnyvale, Calif.).
For another data set, the target named is LPO-H2O2 reaction (Bos taurus, UniProt P80025). Nature of the data set: Compound II formation from the peroxidase-H2O2 reaction (OD 430 nm). The data set is classed as biochemical. Conditions: KI at 1 μM. The text has this: Compound II, however, is relatively stable and can be measured at OD of 430 nm. The compound II level is well maintained after mixing LPO and H2O2 (Referring to FIG. 28). […] Since the compound II is derived from the compound I, the inhibition of compound I is also understandable.

As to `CCCc1cc(=O)[nH]c(=S)[nH]1` [PTU, propylthiouracil], in data set [1], the side-effects entry is on record as “severe liver damage”. With `Cn1cc[nH]c1=S` [MMI, methimazole], the “degradation of H2O2” value in data set [2] is “can degrade H2O2 although higher concentration of MMI is required”. Besides, the side-effects entry in data set [1] was “an allergic reaction, an increase of a variety of enzyme levels in liver, a joint pain and an agranulocytosis in case of a severe condition”. In the case of `[I-].[K+]` [KI], on LPO-H2O2 reaction, the “compound II formation” value was “partially inhibits”.

(Values after patent US20180000136A1, “BIOLOGICAL INORGANIC COMPOUND COMPLEX HAVING REDUCED OXYGEN AND HIGH REDUCING ABILITY” (priority 2011, published 2018).)
